Values joined by “and” are separate entries in the source; they are usually repeats but may differ in a detail not shown here. Identical values can stand only once. “Also recorded” adds a separate entry of the source.
Experiments:
[1] = test system: metabotropic glutamate receptor; assay: Behavioral analysis after ICV infusion (quisqualate excitotoxicity); assay type: in vivo, male F344 rats; conditions: for convulsant behavior, compound alone: no quisqualate; for effective dose: ICV, pilot testing; for death, cases: 120 min
Experimental: The animals used in this experiment were male F344 rats (Charles River Breeding Laboratories). The animals were housed individually, exposed to a 12-hour light-dark cycle, and allowed free access to food and water. The animals weighed approximately 250 g at the beginning of each experiment and were weighed daily. In addition, the animals were habituated to handling before each experiment.
Before administering various compounds, the animals were anesthetized with sodium pentobarbital (50 mg/kg, i.p.) and positioned in a sterotaxic instrument. A 26 gauge cannula was inserted into the cerebral ventricle at the following co-ordinates: 1.0 mm posterior to bregma, 1.5 mm lateral to the midline, and 4.0 mm below the dorsal surface of the neocortex. Cannulas were capped and fixed in place with dental cement. One week after cannulation, 10 μl of each of the treatment drugs was infused, ICV (i.e. into the ventricals of the brain), via a micropump at a rate of 10 μl/min. For this procedure, the animals were lightly restrained and unanesthetized. Following administration of the compound, the infusion cannula remained in position for one minute, after which the permanent in situ cannula was capped.
The compounds administered were obtained from a commercial supplier (Sigma Chemical Co., St. Louis, Mo.) and dissolved in saline prior to injection. […]
Pilot studies identified several specific behavioral measures that could be used to indicate excessive activation of the metabotropic receptor (see Table 3). […] The experiments that follow were based on an analysis of these behaviors over a two hour period after administration of the compounds of the invention. Behavioral observation was carried out by two trained observers, who worked independently of one another and who were blind to the experimental groups. […] Frequency and duration means were computed by subtracting pre-infusion means from post-infusion means.
Some of the experiments that were performed first were carried out to determine the amount of quisqualate required to produce behavioral and histological changes and the amount of lysosphingolipids that could effectively prevent or reverse these effects. Table 3 outlines the behavioral responses of rats to various doses of quisqualate (injected as described above) and the associated histological changes. The behaviors are listed as they occur chronologically. The limb clasp and reflex tests indicate the degree of decortication. A limb clasp or placement score of zero is normal, and a score of 3 is severely abnormal.
The data shown in Table 4 represents the observations of pilot studies aimed at determining the effect (on behavior) of lysosphingolipids infused directly into the lateral ventricles of the brain 30 minutes prior to infusion of quisqualate.
The experiment began one week after ICV cannulation. Animals (n=6 per group) were randomly allocated to one of 8 treatment groups: (1) saline, (2) quisqualate at 225 nmoles, (3) psychosine at 125 nmoles, (4) lysosphingomyelin at 125 nmoles, (5) lysosphingomyelin at 150 nmoles, (6) quisqualate at 225 nmoles and psychosine at 125 nmoles, (7) quisqualate at 225 nmoles and lysosphingomyelin at 125 nmoles, and (8) quisqualate at 225 nmoles and lysosphingomyelin at 150 nmoles. Following the baseline observation period, animals received the first of two ICV infusions (all infusions were of a 10 μl volume that was administered over a 1 minute period). For the first five groups listed above, this consisted of saline (10 μl/minute), for the following 3 groups the infusions were psychosine at 125 nmoles, lysosphingomyelin at 125 nmoles, or Iysosphingomyelin at 150 nmoles, respectively. Thirty minutes later, all animals received the second infusion which, for the first five groups listed above, consisted of saline, quisqualate at 225 nmoles, psychosine at 125 nmoles, lysosphingomyelin at 125 mrnoles, and lysosphingomyelin at 150 nmoles respectively. […]

[2] = test system: InsP3 signalling in primary chick cortical neurons; assay: Phosphoinositide hydrolysis assay (InsP3 signalling) in cultured primary cortical neurons; assay type: cell-based
Experimental: Primary cultures of neurons were prepared from the telencephalon of white Leghorn chick embryos on the eighth day of their development (Rosenberg et al., J.Biol. Chem. 267:10601-10612, 1992). The neurons were seeded in 24-well plastic tissue culture plates that had been coated with L-polylysine. The density of the neurons was 10^5 cells per well, and they were cultured in Dulbecco's modified Eagle's medium/Ham's high glucose F-12 medium (1:1, vol:vol) containing 500 ng/L sodium selenite, 500 μg/L transferrin, and 165 pmole/L EGF. The cultures were maintained at 37° C. under 5% CO2 in air for 4 days, by which time the cells had differentiated into neurite-bearing cortical granulocytic neurons. These cultures of mature embryonic neurons were used for phosphoinositide hydrolysis assays (as described in Example 2).
Receptor-stimulated and basal unstimulated hydrolysis of phosphoinositides was measured by the following procedure. In order to label the cellular phosphoinositides metabolically, the primary cultures of chick cortical neurons (described in Example 1) were incubated overnight with 0.5 ml Dulbecco's modified Eagle's medium containing 1 μCi [^3 H]myo-inositol per well. The cells were then washed twice with 1 ml Dulbecco's phosphate-buffered saline (PBS) and 0.5 ml of PBS containing 4.5 g/L glucose was added. Sphingosine, psychosine, lysosulphatide, or lysosphingomyelin, prepared as the hydrochloride salt dissolved in water, were then added to produce the desired extracellular concentration in specific wells, […] The cells were then washed twice with 1 ml PBS, and pre-incubated for 15 minutes at 37° C. with 0.5 ml PBS containing 10 mM LiCl and the compound to be tested was added. […] The tubes were vortexed thoroughly, then centrifuged at 500×g for 5 minutes to separate the aqueous and chloroform phases. For each sample, a 1.5-ml aliquot of the upper (aqueous) phase was applied to a small column containing BioRad AG1X8 resin (formate form). Free [^3 H]inositol and [^3 H]glycerophosphoinositol were washed through the column with 5 ml of a solution containing 5 mM sodium borate and 60 mM sodium formate. The total phosphorylated [^3 H] inositol fraction was eluted from the column for radiometric scintillation spectrometry analysis with 3 ml 1.0 M ammonium formate/0.1 M formic acid;
In addition, a 0.5 ml aliquot of the lower (chloroform) phase of each sample was analyzed radiometrically by scintillation spectrometry in order to determine the quantity of lipid-bound [^3 H]myo-inositol. Estimation of phosphoinositide hydrolysis by phospholipase C is based upon the quantity of [^3 H]inositol phosphates produced, and is expressed as the percentage of the latter relative to total free and componential [^3 H]inositol (dpm ammonium formate+dpm chloroform fractions).
Cultured primary chick cortical neurons that were prelabeled with [^3 H]myo-inositol were examined for enhanced InsP3 signalling in response to various agonists including glutamate, aspartate, and the metabotropic […] receptor agonists ibotenate and quisqualate.

[3] = Quisqualate 225 nmoles ICV, rat
[4] = Quisqualate 250 nmoles ICV, rat

With `CCCCCCCCCCCCC/C=C/[C@@H](O)[C@@H](N)COP(=O)([O-])OCC[N+](C)(C)C` [lysosphingomyelin, sphingosyl phosphoryicholine] the “convulsant behavior, compound alone” value ([1]; 125 nmoles ICV) was “displayed no convulsant behavior”, the “convulsant behavior, compound alone” value ([1]; 150 nmoles ICV) was “displayed no convulsant behavior” and the effective dose ([1]; rat) was 125 nmol and 150 nmol. The “sedation produced by the lysosphingolipid” value ([1]; Lysosphingomyelin 150 nmoles ICV) was “mild sedation”, the “behavioral or neurotoxic effects of the compound itself” value ([1]; doses as high as 125 nmoles per animal ICV) was “no behavioral or neurotoxic effects were observed” and the “behavioral and histological changes caused by quisqualate” value ([1]; pretreated with 125 nmoles ICV, rat) was “absent”. For the same compound, the “number of convulsions or spasms” value ([1]; pretreatment 125 nmoles ICV 30 minutes before quisqualate 225 nmoles, n=6) was “significantly (p<01) attenuated”, the “number of convulsions or spasms” value ([1]; pretreatment 150 nmoles ICV 30 minutes before quisqualate 225 nmoles, n=6) was “significantly (p<01) attenuated” and the “time quisqualate-alone animals spent in teeth chattering, akinesia and mobilization compared with this group” value ([1]; quisqualate 225 nmoles and lysophingomyelin 150 nmoles ICV) was “significantly (p<.01) more time”. The “inhibitory effect on InsP3 enhancement caused by sphingosine or metabotropic glutamate receptor agonists” value ([2]; cortical neurons) was “blocked this enhancement”.
With `N[C@@H](Cn1oc(=O)[nH]c1=O)C(=O)O` [Quisqualate, quisqualate] the effective dose ([1]; rat) was 225 nmol, the BEHAVIOR ([1]; Quisqualate 100 nmoles ICV, rat) was “teeth chatter; also recorded: mild scratching; also recorded: hind leg weakness 60 minutes” and the “placement and clasp reflex score” value ([1]; Quisqualate 100 nmoles ICV, score zero is normal, 3 is severely abnormal) was 0. For the same compound, the BEHAVIOR ([1]; Quisqualate 150 nmoles ICV, rat) was “teeth chatter; also recorded: localized twitches; also recorded: mild hyperactivity walking in circles; also recorded: hind leg weakness for 60 minutes”, the BEHAVIOR ([1]; Quisqualate 150 nmoles ICV, rat, listed as quisqualate) was “increase in activity and teeth chattering” and the “placement and clasp reflex score” value ([1]; Quisqualate 150 nmoles ICV, score zero is normal, 3 is severely abnormal) was 0. The BEHAVIOR ([1]; Quisqualate 200 nmoles ICV, rat) was “teeth chatter; also recorded: occasional mild convulsions; also recorded: hyperactivity - circle walking; also recorded: episodic akinesia/tonic immobility; also recorded: hind leg weakness”, the “limb clasp and placement reflex score” value ([1]; Quisqualate 200 nmoles ICV, score zero is normal, 3 is severely abnormal) was 0 and the BEHAVIOR [1, 3] was “teeth chatter; also recorded: hind leg paralysis; also recorded: hyperactivity/walk in circles; also recorded: full body convulsions - moderate; also recorded: localized spasms twitching/jerking; also recorded: episodic akinesia/tonic immobility; also recorded: respiratory distress; also recorded: foaming at mouth”. For the same compound, the “death, cases” value [1, 3] was 60%, the BEHAVIOR ([1]; Quisqualate 225 nmoles ICV, rat, listed as quisqualate) was “moderate convulsions” and the “placement and clasp reflex score” value ([1]; Quisqualate 225 nmoles ICV, score zero is normal, 3 is severely abnormal) was 1-2. For the same compound, the BEHAVIOR [1, 4] was “vocalization; also recorded: teeth chattering; also recorded: scratching; also recorded: localized spasms jerking/twitching; also recorded: full body convulsions-severe/repeated; also recorded: foaming at mouth; also recorded: respiratory distress”, the “death, cases” value [1, 4] was 75% and the BEHAVIOR ([1]; Quisqualate 250 nmoles ICV, rat, listed as quisqualate) was “severe convulsions and death”. The “placement and clasp reflex score” value ([1]; Quisqualate 250 nmoles ICV, score zero is normal, 3 is severely abnormal) was 3, the BEHAVIOR ([1]; Quisqualate 1 μmoles ICV, rat) was “severe repeated full body convulsions; also recorded: severe scratching; also recorded: severe teeth chattering; also recorded: foaming at mouth” and the time to death ([1]; Quisqualate 1 μmoles ICV, rat) was 5 to 15 min. For the same compound, the “death, cases” value ([1]; Quisqualate 1 μmoles ICV, rat) was 100%, the BEHAVIOR ([1]; Quisqualate 500 μmoles ICV, rat) was “vocalization” and the “duration of teeth chattering, akinesia and mobilization versus lysosphingolipid-alone groups and quisqualate + lysosphingomyelin 150 nmoles” value ([1]; quisqualate alone 225 nmoles ICV) was “significantly (p<.01) more time engaged in these behaviors”. The “number of convulsions/spasms compared to all other groups” value ([1]; quisqualate alone at 225 nmoles ICV, 2 hours observation, n=6) was “significantly (p.<01) more convulsions/spasms”, the “Ins-P-n, modulator Lsm:Sph” value ([2]; 20 μM Lysosphingomyelin + 20 μM Sphingosine, then 100 μM agonist 20 min, normalized to control = 1.00) was 2.25 ± 0.15 and the “Ins-P-n, modulator Psy:Sph” value ([2]; 20 μM Psychosine + 20 μM Sphingosine, then 100 μM agonist 20 min, normalized to control = 1.00) was 3.30 ± 0.25. For the same compound, the fold induction at 100 µM ([2]; Gallus gallus, Cortical neurone, 20 min, read-out: Ins-P-n (agonist alone)) was 3 ± 0.05.
For `CCCCCCCCCCCCC/C=C/[C@@H](O)[C@@H](N)CO` [sphingosine], the “basal, unstimulated InsP3 level in cortical neurons” value [2] was “tonically enhanced”.

Reference: patent US6083920A, “Compositions for modulating intracellular inositol trisphosphate concentration” (priority 1996, dated 2000)
